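Interpolation was linear, between the two tested concentrations surrounding the appropriate level; five concentrations were tested over 48 hours in 96-well plates. TGI marks complete inhibition of growth.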
Legend:
Experiment in all cases: inhibition of tumour cell growth, NCI panel, 48 h
HS 578T breast = tested on: HS 578T breast
HCT-15 colon = tested on: HCT-15 colon
SNB-19 CNS = tested on: SNB-19 CNS
SK-OV-3 ovarian = tested on: SK-OV-3 ovarian
M14 melanoma = tested on: M14 melanoma
HT29 colon = tested on: HT29 colon
UACC-257 melanoma = tested on: UACC-257 melanoma
MDA-N = tested on: MDA-N
ACHN renal = tested on: ACHN renal
HOP-62 NSCLC = tested on: HOP-62 NSCLC
CAKI-1 renal = tested on: CAKI-1 renal
SF-539 CNS = tested on: SF-539 CNS
PC-3 prostate = tested on: PC-3 prostate
SK-MEL-28 melanoma = tested on: SK-MEL-28 melanoma
MDA-MB-435 = tested on: MDA-MB-435
OVCAR-3 ovarian = tested on: OVCAR-3 ovarian
DU-145 prostate = tested on: DU-145 prostate
COLO 205 colon = tested on: COLO 205 colon
HCC-2998 colon = tested on: HCC-2998 colon
A498 renal = tested on: A498 renal
SF-268 CNS = tested on: SF-268 CNS
K-562 leukemia = tested on: K-562 leukemia
KM12 colon = tested on: KM12 colon
SW-620 colon = tested on: SW-620 colon
SN12C renal = tested on: SN12C renal
OVCAR-4 ovarian = tested on: OVCAR-4 ovarian
NCI-H226 lung = tested on: NCI-H226 lung
786-0 renal = tested on: 786-0 renal
UACC-62 melanoma = tested on: UACC-62 melanoma
U251 CNS = tested on: U251 CNS
EKVX NSCLC = tested on: EKVX NSCLC
MCF7 breast = tested on: MCF7 breast
MDA-MB-231 breast = tested on: MDA-MB-231 breast
SK-MEL-5 melanoma = tested on: SK-MEL-5 melanoma
IGROV1 ovarian = tested on: IGROV1 ovarian
OVCAR-8 ovarian = tested on: OVCAR-8 ovarian
SNB-75 CNS = tested on: SNB-75 CNS
MALME-3M melanoma = tested on: MALME-3M melanoma
LOX IMVI melanoma = tested on: LOX IMVI melanoma
T-47D breast = tested on: T-47D breast
NCI-H460 lung = tested on: NCI-H460 lung
HOP-92 NSCLC = tested on: HOP-92 NSCLC
UO-31 renal = tested on: UO-31 renal
TK-10 renal = tested on: TK-10 renal
BT-549 breast = tested on: BT-549 breast
MOLT-4 leukemia = tested on: MOLT-4 leukemia
NCI/ADR-RES ovarian = tested on: NCI/ADR-RES ovarian
SF-295 CNS = tested on: SF-295 CNS
CCRF-CEM leukemia = tested on: CCRF-CEM leukemia
A549 NSCLC = tested on: A549 NSCLC
HCT-116 colon = tested on: HCT-116 colon
SR leukemia = tested on: SR leukemia
RPMI-8226 leukemia = tested on: RPMI-8226 leukemia
RXF 393 renal = tested on: RXF 393 renal
NCI-H23 lung = tested on: NCI-H23 lung
SK-MEL-2 melanoma = tested on: SK-MEL-2 melanoma
HL-60(TB) leukemia = tested on: HL-60(TB) leukemia
NCI-H522 lung = tested on: NCI-H522 lung

## O=C1C=CC(=O)c2c(O)c(NCCN3CCOCC3)c(Cl)c(O)c21
HS 578T breast
  TGI: 6.54 µM
HCT-15 colon
  TGI: 3.87 µM
SNB-19 CNS
  TGI: 3.23 µM
SK-OV-3 ovarian
  TGI: > 10 µM
M14 melanoma
  TGI: 3.64 µM
HT29 colon
  TGI: 4.7 µM
UACC-257 melanoma
  TGI: 4.56 µM
MDA-N
  TGI: 5.33 µM
ACHN renal
  TGI: 7.51 µM
HOP-62 NSCLC
  TGI: 3.72 µM
CAKI-1 renal
  TGI: 3.25 µM
SF-539 CNS
  TGI: 3.33 µM
PC-3 prostate
  TGI: 7.15 µM
SK-MEL-28 melanoma
  TGI: 2.98 µM
MDA-MB-435
  TGI: 4.12 µM
OVCAR-3 ovarian
  TGI: 7.26 µM
DU-145 prostate
  TGI: 3.12 µM
COLO 205 colon
  TGI: 3.01 µM
HCC-2998 colon
  TGI: 3.35 µM
A498 renal
  TGI: > 10 µM
SF-268 CNS
  TGI: 6.12 µM
K-562 leukemia
  TGI: 7.59 µM
KM12 colon
  TGI: > 10 µM
SW-620 colon
  TGI: 2.91 µM
SN12C renal
  TGI: 3.23 µM
OVCAR-4 ovarian
  TGI: 3.22 µM
NCI-H226 lung
  TGI: > 10 µM
786-0 renal
  TGI: 5.47 µM
UACC-62 melanoma
  TGI: 3.03 µM
U251 CNS
  TGI: 6.97 µM
EKVX NSCLC
  TGI: > 10 µM
MCF7 breast
  TGI: 2.96 µM
MDA-MB-231 breast
  TGI: 6.43 µM
SK-MEL-5 melanoma
  TGI: 2.35 µM
IGROV1 ovarian
  TGI: 3.72 µM
OVCAR-8 ovarian
  TGI: > 10 µM
SNB-75 CNS
  TGI: 3.27 µM
MALME-3M melanoma
  TGI: 3.31 µM
LOX IMVI melanoma
  TGI: 2.85 µM
T-47D breast
  TGI: 4.51 µM
NCI-H460 lung
  TGI: 3.3 µM
HOP-92 NSCLC
  TGI: 6.39 µM
UO-31 renal
  TGI: 3.96 µM
TK-10 renal
  TGI: > 10 µM
BT-549 breast
  TGI: 3.98 µM
MOLT-4 leukemia
  TGI: 3.89 µM
NCI/ADR-RES ovarian
  TGI: 4.88 µM
SF-295 CNS
  TGI: 3.41 µM
CCRF-CEM leukemia
  TGI: 4.46 µM
A549 NSCLC
  TGI: 4.96 µM
HCT-116 colon
  TGI: 3.17 µM

## CCCCC1Nc2ccccc2-c2ccnc(Cl)c21 (configuration not stated)
HS 578T breast
  TGI: 32.3 µM
HCT-15 colon
  TGI: 44.4 µM
SNB-19 CNS
  TGI: 77.7 µM
SK-OV-3 ovarian
  TGI: 55.7 µM
M14 melanoma
  TGI: 43.1 µM
HT29 colon
  TGI: 47.6 µM
UACC-257 melanoma
  TGI: 42.3 µM
MDA-N
  TGI: 54.9 µM
ACHN renal
  TGI: 68.4 µM
HOP-62 NSCLC
  TGI: 53.3 µM
CAKI-1 renal
  TGI: 20.2 µM
SF-539 CNS
  TGI: 41.8 µM
PC-3 prostate
  TGI: > 100 µM
SK-MEL-28 melanoma
  TGI: 46.5 µM
SR leukemia
  TGI: 51 µM
RPMI-8226 leukemia
  TGI: 31.9 µM
MDA-MB-435
  TGI: 41.7 µM
OVCAR-3 ovarian
  TGI: 25.2 µM
DU-145 prostate
  TGI: 50.3 µM
COLO 205 colon
  TGI: 36 µM
HCC-2998 colon
  TGI: 69.4 µM
A498 renal
  TGI: 46.4 µM
RXF 393 renal
  TGI: 40.8 µM
SF-268 CNS
  TGI: 89.2 µM
K-562 leukemia
  TGI: 62.8 µM
KM12 colon
  TGI: 69 µM
SW-620 colon
  TGI: > 100 µM
SN12C renal
  TGI: 51 µM
OVCAR-4 ovarian
  TGI: 91.5 µM
NCI-H226 lung
  TGI: 39.9 µM
786-0 renal
  TGI: 45.2 µM
UACC-62 melanoma
  TGI: 32.2 µM
U251 CNS
  TGI: 50.1 µM
NCI-H23 lung
  TGI: 31.4 µM
EKVX NSCLC
  TGI: 60.5 µM
MCF7 breast
  TGI: > 100 µM
MDA-MB-231 breast
  TGI: 43.8 µM
SK-MEL-5 melanoma
  TGI: 30.3 µM
IGROV1 ovarian
  TGI: 47.9 µM
SNB-75 CNS
  TGI: 52.3 µM
SK-MEL-2 melanoma
  TGI: 35.8 µM
MALME-3M melanoma
  TGI: 51 µM
LOX IMVI melanoma
  TGI: 34.7 µM
HL-60(TB) leukemia
  TGI: 51.8 µM
NCI-H522 lung
  TGI: 29.6 µM
NCI-H460 lung
  TGI: > 100 µM
HOP-92 NSCLC
  TGI: 40.9 µM
UO-31 renal
  TGI: 55.8 µM
TK-10 renal
  TGI: > 100 µM
BT-549 breast
  TGI: 42.6 µM
MOLT-4 leukemia
  TGI: 50.9 µM
NCI/ADR-RES ovarian
  TGI: 99.6 µM
SF-295 CNS
  TGI: 47.7 µM
CCRF-CEM leukemia
  TGI: 52.6 µM
A549 NSCLC
  TGI: > 100 µM
HCT-116 colon
  TGI: 32.3 µM
